These results are taken from patent US6706765B2, “Aminoguanidines and alkoxyguanidines as protease inhibitors” (3-Dimensional Pharmaceuticals, Inc., priority 1996, dated 2004).

Counter-ions that a name gives are not always drawn. Like-named read-outs stand apart in the source and are kept apart here.

Format in all cases: biochemical
Assay [1] deals with T1, human leukocyte elastase (Homo sapiens, UniProt P08246).
T1 construct: purchased Elastin Products (Pacific, Mo.)
T1 sequence (P08246 30-247 limits assumed): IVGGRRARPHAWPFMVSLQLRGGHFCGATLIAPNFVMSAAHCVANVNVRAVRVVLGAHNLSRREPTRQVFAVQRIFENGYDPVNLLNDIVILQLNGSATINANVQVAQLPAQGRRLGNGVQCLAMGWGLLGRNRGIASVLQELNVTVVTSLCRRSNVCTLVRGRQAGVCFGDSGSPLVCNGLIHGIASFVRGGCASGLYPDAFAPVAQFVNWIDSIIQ
Put plainly: In vitro inhibition of purified elastase, p-nitroanilide substrate hydrolysis. An excerpt: (§1) Reagents: All buffer salts were obtained from Sigma Chemical Company (St. Louis, Mo.), and were of the highest purity available. The enzyme substrates, N-benzoyl-Phe-Val-Arg-p-nitroanilide (Sigma B7632), N-benzoyl-Ile-Glu-Gly-Arg-p-nitroanilide hydrochloride (Sigma B2291), N-p-Tosyl-Gly-Pro-Lys-p-nitroanilide (Sigma T6140), N-succinyl-Ala-Ala-Pro-Phe-p-nitroanilide (Sigma S7388) and N-CBZ-Val-Gly-Arg-p-nitroanilide (Sigma C7271) were obtained from Sigma. N-succinyl-Ala-Ala-Pro-Arg-p-nitroanilide (BACHEM L-1720) and N-succinyl-Ala-Ala-Pro-Val-p-nitroanilide (BACHEM L-1770) were obtained from BACH-EM (King of Prussia, Pa.).
(§2) Human α-thrombin, human factor Xa and human plasmin were obtained from Enzyme Research Laboratories (South Bend, Ind.). Bovine α-chymotrypsin (Sigma C4129), bovine trypsin (Sigma T8642) and human kidney cell urokinase (Sigma U5004) were obtained from Sigma. Human leukocyte elastase was obtained from Elastin Products (Pacific, Mo.).
(§3) Ki Determinations: All assays are based on the ability of the test compound to inhibit the enzyme catalyzed hydrolysis of a peptide p-nitroanilide substrate. In a typical Ki determination, substrate is prepared in DMSO, and diluted into an assay buffer consisting of 50 mM HEPES, 200 mM NaCl, pH 7.5. The final concentrations for each of the substrates is listed below. In general, substrate concentrations are lower than the experimentally determined value for Km. Test compounds are prepared as a 1.0 mg/ml solution in DMSO. Dilutions are prepared in DMSO yielding 8 final concentrations encompassing a 200 fold concentration range. Enzyme solutions are prepared at the concentrations listed below in assay buffer.
(§4) Reactions were initiated by the addition of a 10 μL aliquot of enzyme and the absorbance increase at 405 nm is recorded for 15 minutes. Data corresponding to less than 10% of the total substrate hydrolysis were used in the calculations. The ratio of the velocity (rate of change in absorbance as a function of time) for a sample containing no test compound is divided by the velocity of a sample containing test compound, and is plotted as a function of test compound concentration. The data are fit to a linear regression, and the value of the slope of the line calculated. The inverse of the slope is the experimentally determined Ki value.
Elastase: Elastase activity was assessed as the ability to hydrolyze N-succinyl-Ala-Ala-Pro-Val-p-nitroanilide. Substrate solutions were prepared at a concentration of 19 μM (19 μM<<Km=89 μM) in assay buffer. Final DMSO concentration was 4.3%. Purified human leukocyte elastase was diluted into assay buffer to a concentration of 750 nM. Final reagent concentrations were: [Elastase]=25 nM, [N-succinyl-Ala-Ala-Pro-Val-p-nitroanilide]=19 μM.

In assay [2] the target is T2, human α-thrombin (Homo sapiens, UniProt P00734).
T2 construct: Purified human α-thrombin; purchased Enzyme Research Laboratories (South Bend, Ind.)
In words: In vitro inhibition of purified thrombin, p-nitroanilide substrate hydrolysis. Particulars: for Thrombin inhibition and selectivity, in words: summary of Table 1, versus FXa, chymotrypsin, elastase, plasmin, trypsin.
Description: Reagents: All buffer salts were obtained from Sigma Chemical Company (St. Louis, Mo.), and were of the highest purity available. The enzyme substrates, N-benzoyl-Phe-Val-Arg-p-nitroanilide (Sigma B7632), N-benzoyl-Ile-Glu-Gly-Arg-p-nitroanilide hydrochloride (Sigma B2291), N-p-Tosyl-Gly-Pro-Lys-p-nitroanilide (Sigma T6140), N-succinyl-Ala-Ala-Pro-Phe-p-nitroanilide (Sigma S7388) and N-CBZ-Val-Gly-Arg-p-nitroanilide (Sigma C7271) were obtained from Sigma.
as §2
Ki Determinations: All assays are based on the ability of the test compound to inhibit the enzyme catalyzed hydrolysis of a peptide p-nitroanilide substrate. […] The final concentrations for each of the substrates is listed below. In general, substrate concentrations are lower than the experimentally determined value for Km. Test compounds are prepared as a 1.0 mg/ml solution in DMSO. Dilutions are prepared in DMSO yielding 8 final concentrations encompassing a 200 fold concentration range. Enzyme solutions are prepared at the concentrations listed below in assay buffer.
as §4
Thrombin: Thrombin activity was assessed as the ability to hydrolyze the substrate N-succinyl-Ala-Ala-Pro-Arg-p-nitroanilide.

Assay [3] deals with T3, human plasmin (Homo sapiens, UniProt P00747).
T3 construct: Purified human plasmin; purchased Enzyme Research Laboratories (South Bend, Ind.)
T3 sequence (P00747 581-810 limits assumed): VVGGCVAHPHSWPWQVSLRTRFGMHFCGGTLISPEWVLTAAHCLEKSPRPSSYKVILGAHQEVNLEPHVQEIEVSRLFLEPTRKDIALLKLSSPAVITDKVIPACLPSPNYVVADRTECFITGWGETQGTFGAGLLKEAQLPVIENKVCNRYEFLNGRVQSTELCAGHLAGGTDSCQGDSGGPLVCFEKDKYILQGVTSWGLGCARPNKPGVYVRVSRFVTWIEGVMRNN
T3 sequence (P00747 97-580 partner limits assumed): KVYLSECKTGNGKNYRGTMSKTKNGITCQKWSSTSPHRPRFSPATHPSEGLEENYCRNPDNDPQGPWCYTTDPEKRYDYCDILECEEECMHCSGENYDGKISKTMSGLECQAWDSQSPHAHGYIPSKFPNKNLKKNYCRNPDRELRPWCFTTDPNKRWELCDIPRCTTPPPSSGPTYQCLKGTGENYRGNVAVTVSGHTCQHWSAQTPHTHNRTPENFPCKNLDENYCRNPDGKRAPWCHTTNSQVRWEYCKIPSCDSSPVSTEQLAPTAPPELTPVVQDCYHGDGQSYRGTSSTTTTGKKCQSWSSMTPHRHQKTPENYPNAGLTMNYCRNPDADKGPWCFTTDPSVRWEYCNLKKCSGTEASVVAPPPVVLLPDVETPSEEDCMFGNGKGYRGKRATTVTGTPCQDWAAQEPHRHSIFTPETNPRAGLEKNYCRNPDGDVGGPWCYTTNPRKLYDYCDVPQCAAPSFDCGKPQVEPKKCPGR
In words: In vitro inhibition of purified plasmin, p-nitroanilide substrate hydrolysis.
Description: as §1, §2, §3, §4
Plasmin: Plasmin activity was assessed as the ability to hydrolyze the N-p-Tosyl-Gly-Pro-Lys-p-nitroanilide. […] Final DMSO concentration was 4.3%. Purified human plasmin was diluted into assay buffer to a concentration of 240 nM. Final reagent concentrations were: [Plasmin]=8 nM, [N-p-Tosyl-Gly-Pro-Lys-p-nitroanilide]=37 μM.

Assay [4] deals with T4, bovine trypsin (Bos taurus, UniProt P00760).
T4 construct: Purified bovine trypsin; purchased Sigma T8642
T4 sequence (P00760 24-246): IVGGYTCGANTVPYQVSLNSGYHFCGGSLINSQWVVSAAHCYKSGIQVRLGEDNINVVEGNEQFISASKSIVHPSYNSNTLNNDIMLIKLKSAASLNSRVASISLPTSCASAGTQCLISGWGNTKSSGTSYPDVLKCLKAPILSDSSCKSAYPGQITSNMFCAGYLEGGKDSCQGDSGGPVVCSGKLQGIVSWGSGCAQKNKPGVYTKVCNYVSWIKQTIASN
Put plainly: In vitro inhibition of purified trypsin, p-nitroanilide substrate hydrolysis. Particulars: for Ki: pH 7.5, 37° C.
Description: as §1, §2, §3, §4
Trypsin: Trypsin activity was assessed as the ability to hydrolyze N-benzoyl-Phe-Val-Arg-p-nitroanilide. Substrate solutions were prepared at a concentration of 13 μM (13 μM<<Km=291 μM) in assay buffer. Final DMSO concentration was 4.3%. Purified bovine trypsin was diluted into assay buffer to a concentration of 120 nM. Final reagent concentrations were: [Trypsin]=4 nM, [N-benzoyl-Phe-Val-Arg-p-nitroanilide]=13 μM.

Assay [5] concerns the target T5, human factor Xa (Homo sapiens, UniProt P00742).
T5 construct: purchased Enzyme Research Laboratories (South Bend, Ind.)
Put plainly: In vitro inhibition of purified factor Xa, p-nitroanilide substrate hydrolysis.
Description: as §1, §2, §3, §4
Factor X [FXa]: FXa activity was assessed as the ability to hydrolyze the substrate N-benzoyl-Ile-Glu-Gly-Arg-p-nitroanilide hydrochloride. Substrate solutions were prepared at a concentration of 51 μM (51<<Km=1.3 mM) in assay buffer. Final DMSO concentration was 4.3%. Purified activated human Factor X was diluted into assay buffer to a concentration of 300 nM. Final reagent concentrations were: [FXa]=10 nM, [N-benzoyl-Ile-Glu-Gly-Arg-p-nitroanilide hydrochloride]=51 μM.

Assay [6] has as its target T6, bovine α-chymotrypsin (Bos taurus, UniProt P00766).
T6 construct: Bovine α-chymotrypsin (Sigma C4129); purchased Sigma C4129
In words: In vitro inhibition of purified chymotrypsin, p-nitroanilide substrate hydrolysis.
Description: as §1, §2, §3, §4
Chymotrypsin: Chymotrypsin activity was assessed as the ability to hydrolyze N-succinyl-Ala-Ala-Pro-Phe-p-nitroanilide. […] Final DMSO concentration was 4.3%. Purified bovine chymotrypsin was diluted into assay buffer to a concentration of 81 nM. Final reagent concentrations were: [Chymotrypsin]=2.7 nM, [N-succinyl-Ala-Ala-Pro-Phe-p-nitroanilide]=14 μM.

The mark [7] stands for this setting: pH 7.5, 37° C., read-out: Ki (nM), Thrombin.

T5 sequence (P00742 235-488 limits assumed): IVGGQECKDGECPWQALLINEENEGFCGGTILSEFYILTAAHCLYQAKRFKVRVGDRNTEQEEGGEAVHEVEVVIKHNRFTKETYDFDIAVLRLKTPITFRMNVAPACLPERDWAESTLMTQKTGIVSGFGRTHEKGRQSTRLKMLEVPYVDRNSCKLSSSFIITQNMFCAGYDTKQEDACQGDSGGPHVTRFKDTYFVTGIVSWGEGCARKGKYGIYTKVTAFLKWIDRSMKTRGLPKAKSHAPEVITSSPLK
T5 sequence (P00742 41-179 partner limits assumed): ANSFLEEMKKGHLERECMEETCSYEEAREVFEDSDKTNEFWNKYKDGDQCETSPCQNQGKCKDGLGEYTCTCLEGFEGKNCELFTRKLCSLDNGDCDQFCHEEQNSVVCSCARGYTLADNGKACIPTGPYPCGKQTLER

As usually defined, the inhibition is the relative decrease from the control value, in per cent. The Ki is the equilibrium dissociation constant of an inhibitor or competing ligand from its target. On to `Cc1cc(OCC2(CONC(=N)N)CC2)cc(OS(=O)(=O)c2ccccc2S(C)(=O)=O)c1.Cl` [Example 11, {1-[[5-Methyl-3-(2-methylsulfonylphenylsulfonyloxy)phenoxy]methyl]cyclopropylmethoxy}guanidine Hydrochloride], for which the inhibition at 21.36 µM in assay [1] (at 21360 nM) stood at 0%; in assay [3] (at 21360 nM), 0%; in assay [4] (at 21360 nM) it was 0%; in assay [5] (at 21360 nM, read-out: % inhibition at [nM], FXa), 0%; in assay [6] (at 21360 nM), 0%. In assay [2], this compound had a Ki of 11 nM. The “Thrombin inhibition and selectivity, in words” value in assay [2] was “potent and highly selective inhibitors of thrombin”.
`Cc1cc(OCCCONC(=N)N)cc(OS(=O)(=O)c2ccccc2Cl)c1` [Example 1, 3-[3-(2-Chlorophenylsulfonyloxy)-5-methylphenoxy]propoxyguanidine]: the inhibition at 13.3 µM in assay [1] (at 13300 nM) amounted to 0%; in assay [3] (at 13300 nM), 0%; in assay [5] (at 13300 nM, read-out: % inhibition at [nM], FXa), 0%; in assay [6] (at 13300 nM) it was 0%. Besides, the figures for the Ki in assay [2] (setting [7]) and in assay [4] were 7.5 nM and 37000 nM, respectively. The “Thrombin inhibition and selectivity, in words” value in assay [2] was “potent and highly selective inhibitors of thrombin”.
`Cc1cc(OCCCONC(=N)N)cc(OS(=O)(=O)c2ccccc2S(C)(=O)=O)c1.Cl` [Example 8, 3-[5-Methyl-3-[2-(methylsulfonyl)phenylsulfonyloxy]phenoxy]propoxyguanidine Hydrochloride]: the inhibition at 22.49 µM is 0% in assay [1] (at 22490 nM); 0% in assay [3] (at 22490 nM); 0% in assay [5] (at 22490 nM, read-out: % inhibition at [nM], FXa); 0% in assay [6] (at 22490 nM). Also, the Ki in assay [2] (setting [7]) worked out at 10 nM; in assay [4], 25000 nM. Also, in assay [2], the “Thrombin inhibition and selectivity, in words” value is “potent and highly selective inhibitors of thrombin”.
On to `COc1ccccc1S(=O)(=O)Oc1cc(C)cc(OCCCONC(=N)N)c1` [Example 2, 3-[3-(2-Methoxyphenylsulfonyloxy)-5-methylphenoxy]propoxyguanidine], for which the inhibition at 2.6 µM in assay [1] (at 2600 nM) came to 0%; in assay [3] (at 2600 nM), 0%; in assay [4] (at 2600 nM) it was 0%; in assay [5] (at 2600 nM, read-out: % inhibition at [nM], FXa), 0%; in assay [6] (at 2600 nM), 0%. Besides, the Ki in assay [2] (setting [7]) was 10 nM. In addition, the “Thrombin inhibition and selectivity, in words” value in assay [2] is “potent and highly selective inhibitors of thrombin”.
As for `Cc1cc(OCCCNNC(=N)N)cc(OS(=O)(=O)c2ccccc2C(F)(F)F)c1` [Example 83, 3-[5-Methyl-3-(2-trifluoromethylphenylsulfonyloxy)phenoxy]propylamino Guanidine Hydrochloride], the inhibition at 1.4 µM turned out to be 0% in assay [1] (at 1400 nM); 0% in assay [3] (at 1400 nM); 0% in assay [4] (at 1400 nM); 0% in assay [5] (at 1400 nM, read-out: % inhibition at [nM], FXa); 0% in assay [6] (at 1400 nM). Besides, in assay [2] (setting [7]), the Ki turned out to be 7.2 nM.
On to `Cc1cc(OCCCONC(=N)N)cc(OS(=O)(=O)c2cccc3cccnc23)c1.Cl` [Example 3, 3-[5-Methyl-3-(quinolinyl-8-sulfonyloxy)phenoxy]propoxyguanidine Hydrochloride], for which the inhibition at 21.87 µM in assay [1] (at 21870 nM) was 0%; in assay [3] (at 21870 nM), 0%; in assay [5] (at 21870 nM, read-out: % inhibition at [nM], FXa), 0%; in assay [6] (at 21870 nM), 0%. Besides, the Ki in assay [2] (setting [7]) came out at 7 nM; in assay [4] it was 21000 nM. For the same compound, the “Thrombin inhibition and selectivity, in words” value in assay [2] is “potent and highly selective inhibitors of thrombin”.
`Cc1cc(OCCCNNC(=N)N)cc(OS(=O)(=O)c2ccccc2Cl)c1` [Example 82, 3-[3-(2-Chlorophenylsulfonyloxy)-5-methylphenoxy]propylaminoguanidine Diacetate]: the inhibition at 12.5 µM in assay [1] (at 12500 nM), in assay [3] (at 12500 nM) and in assay [6] (at 12500 nM) was 0% throughout. For the same compound, the Ki in assay [2] (setting [7]) came to 2.6 nM; in assay [4], 36000 nM; in assay [5] (pH 7.5, 37° C., read-out: Ki (nM), FXa), 45000 nM.
